Data from patent publication US20160129011A1, “BICYCLO 2,3-BENZODIAZEPINES AND SPIROCYCLICALLY SUBSTITUTED 2,3-BENZODIAZEPINES” (BAYER PHARMA AKTIENGESELLSCHAFT, priority 2013, published 2016).
pIC50: −log10 of the molar value.

Experiments:
[1] = tested on: KMS-12-PE cells; experiment: Cell proliferation assay (alamarBlue), KMS-12-PE; assay type: cell-based; settings: Homo sapiens, multiple myeloma cell line, 120 h incubation
Method: (§1) In accordance with the invention, the ability of the substances to inhibit cell proliferation was determined. Cell viability was determined by means of the alamarBlue® reagent (Invitrogen) in a Victor X3 Multilabel Reader (Perkin Elmer). The excitation wavelength was 530 nm and the emission wavelength […].
The KMS-12-PE cells (DSMZ, ACC 606) were sown at a concentration of 4000 cells/well in 100 μl of growth medium (RPMI1640, 20% FCS) on 96-well microtitre plates.
(§2) The MDA-MB-231 cells (DSMZ, ACC 732) were sown at a concentration of 4000 cells/well in 100 μl of growth medium (DMEM/Ham's F12 medium, 10% FCS) on 96-well microtitre plates. After overnight incubation at 37° C., the fluorescence values (CI values) were determined. Then the plates were treated with various substance dilutions (1E-5 M, 3E-6 M, 1E-6 M, 3E-7 M, 1E-7 M, 3E-8 M, 1E-8 M) and incubated at 37° C. for 72 (MV4-11, LOX-IMVI cells), 96 (MOLM-13, B16F10, […] cells), 120 (MOLP-8, KMS-12-PE cells) or 168 (LAPC-4 cells) hours. Subsequently, the fluorescence values were determined (CO values). For the data analysis, the CI values were subtracted from the CO values and the results were compared between cells which had been treated with various dilutions of the substance or only with buffer solution. This was used to calculate the IC50 values (substance concentration required for 50% inhibition of cell proliferation). […]

[2] = tested on: LOX-IMVI cells; experiment: Cell proliferation assay (alamarBlue), LOX IMVI; assay type: cell-based; settings: Homo sapiens, melanoma (BRAF mutated) cell line, 72 h incubation
Method: as §1
The LOX-IMVI cells (NCI-60) were sown at a concentration of 1000 cells/well in 100 μl of growth medium (RPMI1640, 10% FCS) on 96-well microtitre plates.
as §2

[3] = tested on: MOLM-13 cells; experiment: Cell proliferation assay (alamarBlue), MOLM-13; assay type: cell-based; settings: Homo sapiens, MOLM-13; acute myeloid leukaemia cell line, 96 h incubation
Outline: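 MOLM-13 cells in RPMI1640/10% FCS were plated overnight, then exposed to seven compound dilutions (1E-5 to 1E-8 M) for 96 h at 37 °C. Viability was read by alamarBlue fluorescence (ex 530/em 590 nm). Pre-treatment readings were subtracted, and IC50 was calculated against buffer-treated cells.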

[4] = tested on: MDA-MB-231 cells; experiment: Cell proliferation assay (alamarBlue), MDA-MB-231; assay type: cell-based; settings: Homo sapiens, mammary carcinoma cell line, 96 h incubation
Method: as §1
(§3) The MDA-MB-231 cells (DSMZ, ACC 732) were sown at a concentration of 4000 cells/well in 100 μl of growth medium (DMEM/Ham's F12 medium, 10% FCS) on 96-well microtitre plates. After overnight incubation at 37° C., the fluorescence values (CI values) were determined. Then the plates were treated with various substance dilutions (1E-5 M, 3E-6 M, 1E-6 M, 3E-7 M, 1E-7 M, 3E-8 M, 1E-8 M) and incubated at 37° C. for 72 (MV4-11, LOX-IMVI cells), 96 (MOLM-13, B16F10, […] cells), 120 (MOLP-8, KMS-12-PE cells) or 168 (LAPC-4 cells) hours. Subsequently, the fluorescence values were determined (CO values). For the data analysis, the CI values were subtracted from the CO values and the results were compared between cells which had been treated with various dilutions of the substance or only with buffer solution. This was used to calculate the IC50 values (substance concentration required for 50% inhibition of cell proliferation).
(§4) The substances were examined in the cell lines of Table 1 which, in an exemplary manner, represent the stated indications: […]

[5] = tested on: B16F10 cells; experiment: Cell proliferation assay (alamarBlue), B16F10; assay type: cell-based; settings: Mus musculus, B16-F10; melanoma (BRAF wild-type) cell line, 96 h incubation
Method: as §1
The B16F10 cells (ATCC, CRL-6475) were sown at a concentration of 300-500 cells/well in 100 μl of growth medium (DMEM with phenol red, 10% FCS) on 96-well microtitre plates.
as §3, §4

[6] = tested on: MOLP-8 cells; experiment: Cell proliferation assay (alamarBlue), MOLP-8; assay type: cell-based; settings: Homo sapiens, MOLP-8; multiple myeloma cell line, 120 h incubation
Method: as §1
The MOLP-8 cells (DSMZ, ACC 569) were sown at a concentration of 4000 cells/well in 100 μl of growth medium (RPMI1640, 20% FCS) on 96-well microtitre plates.
as §3, §4

[7] = target: T1, BRD4 (BD1) (Homo sapiens, UniProt O60885); experiment: Binding assay BRD4/acetylated peptide H4 (TR-FRET protein-protein interaction assay); settings: BRD4 (BD1) / acetylated histone H4 peptide
T1 construct: longer constructs also being possible, preferably amino acids 44-168; made in house; host or cells: E. coli
Outline: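 His6-tagged BRD4 BD1 (aa 67-152, E. coli-expressed, typically 10 nM) was used with a biotinylated tetra-acetylated H4 peptide, and compounds at 0.1 nM–20 μM in duplicate. After 10 min preincubation, mixtures were incubated 1 h at 22 °C, then ≥3 h at 4 °C. Read-out was the TR-FRET 665/622 nm ratio (Eu-streptavidin to anti-His-XL665); IC50 from a 4-parameter fit.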

[8] = tested on: MV4-11 cells; experiment: Cell proliferation assay (alamarBlue), MV4-11; assay type: cell-based; settings: Homo sapiens, acute myeloid leukaemia cell line, 72 h incubation
Method: as §1
The MV4-11 cells (ATCC, CRL 9591) were sown at a concentration of 5000 cells/well in 100 μl of growth medium (RPMI1640, 10% FCS) on 96-well microtitre plates.
as §2

[9] = tested on: LAPC-4 cells; experiment: Cell proliferation assay (alamarBlue), LAPC-4; assay type: cell-based; settings: Homo sapiens, LAPC4; prostate cancer cell line, 1 nM methyltrienolone, 168 h incubation
Method: as §1
The LAPC-4 cells (ATCC, PTA-1441TM) were sown at a concentration of 4000 cells/well in 100 μl of growth medium (RPMI1640, 2 mM L-glutamine, 10% cFCS) on 96-well microtitre plates. One day later, the LAPC-4 cells were treated with 1 nM methyltrienolone and various substance dilutions.
The MDA-MB-231 cells (DSMZ, ACC 732) were sown at a concentration of 4000 cells/well in 100 μl of growth medium (DMEM/Ham's F12 medium, 10% FCS) on 96-well microtitre plates. After overnight incubation at 37° C., the fluorescence values (CI values) were determined. Then the plates were treated with various substance dilutions (1E-5 M, 3E-6 M, 1E-6 M, 3E-7 M, 1E-7 M, 3E-8 M, 1E-8 M) and incubated at 37° C. for 72 (MV4-11, LOX-IMVI cells), 96 (MOLM-13, B16F10, […] cells), 120 (MOLP-8, KMS-12-PE cells) or 168 (LAPC-4 cells) hours. Subsequently, the fluorescence values were determined (CO values). […]

With `CNC(=O)N1N=C(c2ccc(N3C[C@H]4CC[C@@H](C3)O4)cc2)c2cc(OC)c(OC)cc2C[C@@H]1C` [Example 4.2, (4S)-7,8-dimethoxy-N,4-dimethyl-1-[4-(8-oxa-3-azabicyclo[3.2.1]oct-3-yl)phenyl]-4,5-dihydro-3H-2,3-benzodiazepine-3-carboxamide] as the compound, how does the pIC50 [1] read?
Its pIC50 is 7.52.

What about the pIC50 [2] of the same compound?
The pIC50 was 6.77.

And the pIC50 [3]?
The pIC50 was 7.40.

And the pIC50 [4]?
The pIC50 was 7.40.

And the pIC50 [5]?
The pIC50 was 7.70.

And the pIC50 [6]?
The pIC50 was 7.70.

What about the pIC50 [7] of the same compound?
The pIC50 was 8.00.

What about the pIC50 [8] of the same compound?
Its pIC50 is 7.52.

And the pIC50 [9]?
Its pIC50 is 8.00.
